Experimental data: US20100016232A1, “Treatment Of Inflammatory Diseases With Mammal Beta Defensins” (Novozymes A/S, priority 2008, published 2010)
Where no end group is shown, it is not given here.

Assays:
Type in all cases: cell-based
[1] = test system: IL-10 production from human peripheral blood mononuclear cells (PBMC); test: IL-10 production from human PBMC, Cytometric Bead Array
Method: (§1) Peripheral blood was drawn from healthy volunteers (with approval from the relevant ethical committee in Denmark). Heparinized blood was diluted 1/1 v/v with RPMI and were subjected to Ficoll density centrifugation within 2 h of drawing. Plasma was collected from the top from individual donors and was kept on ice until it was used at 2% in the culture medium (autologous culture medium). Isolated PBMC were resuspended in autologous culture medium and seeded in 96-well culture plates with 255.000 cells per well in a total of 200 μl. […] The concentrations used for stimulation were optimized on 3 different donors in initial experiments, for LPS two different concentrations were used to be sure to be on a cytokine level that is possible to modulate. In some experiments PBMC were treated with Dexamethason and Indomethacin alone and together with LPS or LTA as a control on downregulation of inflammatory cytokines. The supernatants were collected after incubation at 37° C. for 24 hours, and stored at −80° C. until cytokine measurement. Viability was measured by Alamar Blue (Biosource, DALL 1100) in all experiments and in some cases also by MTS (Promega) according to manufacturer's instruction and was in some experiments also judged by counting of the cells by a Nucleocounter.
(§2) Cytokine production in supernatants was measured by flow cytometry with a human inflammation cytometric bead array (CBA) according to manufacturer's instructions (BD) on a FACSarray flow cytometer. The following cytokines were measured: IL-8, IL-1β, IL-10, TNF, IL-12 p70, IL-6. In some experiments, cytokines were measured by ELISA kits from R&D systems (IL-10, TNF-α, IL-1β) according to the manufacturer' instruction.

[2] = test system: TNF production from human peripheral blood mononuclear cells (PBMC); test: TNF production from human PBMC, Cytometric Bead Array
Method: as §1, §2

[3] = test system: IL-1β production from human peripheral blood mononuclear cells (PBMC); test: IL-1β production from human PBMC, Cytometric Bead Array
Method: as §1, §2

[4] = LPS 0.6 ng/ml, test compound 1 μg/ml, Table 17
[5] = LPS 0.6 ng/ml, test compound 10 μg/ml, Table 17
[6] = LPS 0.6 ng/ml, test compound 40 μg/ml, Table 17
[7] = LPS 20 ng/ml, test compound 1 μg/ml, Table 17
[8] = LPS 20 ng/ml, test compound 10 μg/ml, Table 17
[9] = LPS 20 ng/ml, test compound 40 μg/ml, Table 17
[10] = Medium, test compound 1 μg/ml, Table 17
[11] = Medium, test compound 10 μg/ml, Table 17
[12] = Medium, test compound 40 μg/ml, Table 17
[13] = LPS 0.6 ng/ml, test compound 1 μg/ml, Table 16
[14] = LPS 0.6 ng/ml, test compound 10 μg/ml, Table 16
[15] = LPS 0.6 ng/ml, test compound 40 μg/ml, Table 16
[16] = LPS 20 ng/ml, test compound 1 μg/ml, Table 16
[17] = LPS 20 ng/ml, test compound 10 μg/ml, Table 16
[18] = LPS 20 ng/ml, test compound 40 μg/ml, Table 16
[19] = Medium, test compound 1 μg/ml, Table 16
[20] = Medium, test compound 10 μg/ml, Table 16
[21] = Medium, test compound 40 μg/ml, Table 16
[22] = LPS 0.6 ng/ml, test compound 1 μg/ml, Table 18
[23] = LPS 0.6 ng/ml, test compound 10 μg/ml, Table 18
[24] = LPS 0.6 ng/ml, test compound 40 μg/ml, Table 18
[25] = LPS 20 ng/ml, test compound 1 μg/ml, Table 18
[26] = LPS 20 ng/ml, test compound 10 μg/ml, Table 18
[27] = LPS 20 ng/ml, test compound 40 μg/ml, Table 18
[28] = Medium, test compound 1 μg/ml, Table 18
[29] = Medium, test compound 10 μg/ml, Table 18
[30] = Medium, test compound 40 μg/ml, Table 18

Work on `COc1ccc2c(c1)c(CC(=O)O)c(C)n2C(=O)c1ccc(Cl)cc1` [Indomethacin, reference compound] yielded an IL-10 ([1]; LPS 0.6 ng/ml, Indomethacin 0.72 ug/ml, Table 12) of 37.3 pg/mL, an IL-10 ([1]; LPS 0.6 ng/ml, Indomethacin 7.2 ug/ml, Table 12) of 45.7 pg/mL and an IL-10 ([1]; LPS 20 ng/ml, Indomethacin 0.72 ug/ml, Table 12) of 108.0 pg/mL. For the same molecule, the IL-10 ([1]; LPS 20 ng/ml, Indomethacin 7.2 ug/ml, Table 12) was 77.9 pg/mL, the IL-10 ([1]; LTA 1.25 μg/ml, Indomethacin 0.72 ug/ml, Table 12) was 84.9 pg/mL and the IL-10 ([1]; LTA 1.25 μg/ml, Indomethacin 7.2 ug/ml, Table 12) was 90.4 pg/mL. For the same molecule, the IL-10 ([1]; Medium, Indomethacin 0.72 ug/ml, Table 12) was 0.0 pg/mL, the IL-10 ([1]; Medium, Indomethacin 7.2 ug/ml, Table 12) was 0.0 pg/mL and the TNF ([2]; LPS 0.6 ng/ml, Indomethacin 0.72 ug/ml, Table 11) was […]. The TNF ([2]; LPS 0.6 ng/ml, Indomethacin 7.2 ug/ml, Table 11) was […], the TNF ([2]; LPS 20 ng/ml, Indomethacin 0.72 ug/ml, Table 11) was […] and the TNF ([2]; LPS 20 ng/ml, Indomethacin 7.2 ug/ml, Table 11) was […]. It also gave a TNF ([2]; LTA 1.25 μg/ml, Indomethacin 0.72 ug/ml, Table 11) of […], a TNF ([2]; LTA 1.25 μg/ml, Indomethacin 7.2 ug/ml, Table 11) of […] and a TNF ([2]; Medium, Indomethacin 0.72 ug/ml, Table 11) of […]. It also gave a TNF ([2]; Medium, Indomethacin 7.2 ug/ml, Table 11) of […], an IL-1β ([3]; LPS 0.6 ng/ml, Indomethacin 0.72 ug/ml, Table 13) of 3100 pg/mL and an IL-1β ([3]; LPS 0.6 ng/ml, Indomethacin 7.2 ug/ml, Table 13) of 4100 pg/mL. For the same molecule, the IL-1β ([3]; LPS 20 ng/ml, Indomethacin 0.72 ug/ml, Table 13) was 6460 pg/mL, the IL-1β ([3]; LPS 20 ng/ml, Indomethacin 7.2 ug/ml, Table 13) was 6120 pg/mL and the IL-1β ([3]; LTA 1.25 μg/ml, Indomethacin 0.72 ug/ml, Table 13) was 7530 pg/mL. The IL-1β ([3]; LTA 1.25 μg/ml, Indomethacin 7.2 ug/ml, Table 13) was 8910 pg/mL, the IL-1β ([3]; Medium, Indomethacin 0.72 ug/ml, Table 13) was 10 pg/mL and the IL-1β ([3]; Medium, Indomethacin 7.2 ug/ml, Table 13) was 40 pg/mL.

With “hBD1: human beta defensin 1, SEQ ID NO:1; prepared using chemical synthesis, Peptide Institute Inc. (DHYNCVSSGGQCLYSACPIFTKIQGTCYRGKAKCCK; ends and bridges not checked; cysteine pairing not given here; listed as Homo sapiens)” the IL-10 [1, 4] was 71 pg/mL, the “IL-10 % of control” value [1, 4] was 108% and the IL-10 [1, 5] was 76 pg/mL. For the same molecule, the “IL-10 % of control” value [1, 5] was 114%, the IL-10 [1, 6] was 69 pg/mL and the “IL-10 % of control” value [1, 6] was 104%. The IL-10 [1, 7] was 95 pg/mL, the “IL-10 % of control” value [1, 7] was 85% and the IL-10 [1, 8] was 100 pg/mL. For the same molecule, the “IL-10 % of control” value [1, 8] was 90%, the IL-10 [1, 9] was 113 pg/mL and the “IL-10 % of control” value [1, 9] was 102%. For the same molecule, the IL-10 [1, 10] was 0 pg/mL, the IL-10 [1, 11] was 0 pg/mL and the IL-10 [1, 12] was 0 pg/mL. For the same molecule, the TNF [2, 13] was 474 pg/mL, the “TNF % of control” value [2, 13] was 65% and the TNF [2, 14] was 203 pg/mL. For the same molecule, the “TNF % of control” value [2, 14] was 28%, the TNF [2, 15] was 91 pg/mL and the “TNF % of control” value [2, 15] was 13%. The TNF [2, 16] was 1395 pg/mL, the “TNF % of control” value [2, 16] was 64% and the TNF [2, 17] was 1311 pg/mL. The “TNF % of control” value [2, 17] was 61%, the TNF [2, 18] was 999 pg/mL and the “TNF % of control” value [2, 18] was 46%. For the same molecule, the TNF [2, 19] was 1 pg/mL, the TNF [2, 20] was 0 pg/mL and the TNF [2, 21] was 0 pg/mL. For the same molecule, the IL-1β [3, 22] was 512 pg/mL, the “IL-1β % of control” value [3, 22] was 69% and the IL-1β [3, 23] was 401 pg/mL. For the same molecule, the “IL-1β % of control” value [3, 23] was 54%, the IL-1β [3, 24] was 302 pg/mL and the “IL-1β % of control” value [3, 24] was 41%. The IL-1β [3, 25] was 2087 pg/mL, the “IL-1β % of control” value [3, 25] was 82% and the IL-1β [3, 26] was 1913 pg/mL. The “IL-1β % of control” value [3, 26] was 75%, the IL-1β [3, 27] was 1599 pg/mL and the “IL-1β % of control” value [3, 27] was 63%. It also gave an IL-1β [3, 28] of 0 pg/mL, an IL-1β [3, 29] of 0 pg/mL and an IL-1β [3, 30] of 0 pg/mL.

“rhBD2: recombinant hBD2, which is identical to hBD2 as used in Example 1 (GIGDPVTCLKSGAICHPVFCPRRYKQIGTCGLPGTKCCKKP; not fully specified; ends and bridges not checked; UniProt O15263 24-64, looked up)” was tested, and the IL-10 [1, 4] was 72 pg/mL, the “IL-10 % of control” value [1, 4] was 108% and the IL-10 [1, 5] was 103 pg/mL. The “IL-10 % of control” value [1, 5] was 155%, the IL-10 [1, 6] was 108 pg/mL and the “IL-10 % of control” value [1, 6] was 162%. The IL-10 [1, 7] was 126 pg/mL, the “IL-10 % of control” value [1, 7] was 113% and the IL-10 [1, 8] was 243 pg/mL. For the same molecule, the “IL-10 % of control” value [1, 8] was 218%, the IL-10 [1, 9] was 281 pg/mL and the “IL-10 % of control” value [1, 9] was 252%. The IL-10 [1, 10] was 0 pg/mL, the IL-10 [1, 11] was 0 pg/mL and the IL-10 [1, 12] was 0 pg/mL. The TNF [2, 13] was 196 pg/mL, the “TNF % of control” value [2, 13] was 27% and the TNF [2, 14] was 125 pg/mL. The “TNF % of control” value [2, 14] was 17%, the TNF [2, 15] was 74 pg/mL and the “TNF % of control” value [2, 15] was 10%. For the same molecule, the TNF [2, 16] was 918 pg/mL, the “TNF % of control” value [2, 16] was 42% and the TNF [2, 17] was 260 pg/mL. The “TNF % of control” value [2, 17] was 12%, the TNF [2, 18] was 167 pg/mL and the “TNF % of control” value [2, 18] was 8%. It also gave a TNF [2, 19] of 1 pg/mL, a TNF [2, 20] of 0 pg/mL and a TNF [2, 21] of 0 pg/mL. For the same molecule, the IL-1β [3, 22] was 284 pg/mL, the “IL-1β % of control” value [3, 22] was 38% and the IL-1β [3, 23] was 214 pg/mL. For the same molecule, the “IL-1β % of control” value [3, 23] was 29%, the IL-1β [3, 24] was 124 pg/mL and the “IL-1β % of control” value [3, 24] was 17%. The IL-1β [3, 25] was 1480 pg/mL, the “IL-1β % of control” value [3, 25] was 58% and the IL-1β [3, 26] was 624 pg/mL. The “IL-1β % of control” value [3, 26] was 25%, the IL-1β [3, 27] was 395 pg/mL and the “IL-1β % of control” value [3, 27] was 16%. For the same molecule, the IL-1β [3, 28] was 0 pg/mL, the IL-1β [3, 29] was 0 pg/mL and the IL-1β [3, 30] was 0 pg/mL.
